This is an account of results in ChEMBL document CHEMBL4334533, “Design, synthesis, and validation of novel nitrogen-based chalcone analogs against triple negative breast cancer” (Eur J Med Chem, 2020).

The source made the active and inactive calls. No cut-off for these calls is given here.

Data set [1] in a line: Selectivity index, ratio of LD50 for E6/E7 immortalized human HNME cells to IC50 for human MCF7 cells.
Data set [2] in a line: Toxicity in athymic nude mouse xenografted with human MDA-MB-231 cells assessed as change in body weight at 10 mg/kg, ip administered for 14 days. The class given is organism-based. The settings on record: in vivo, 336 h. A general note: A xenograft is tissue or cells of one species grown in another, often human tumour cells in immunodeficient mice.
The test system of data set [3] is MCF7. The data set is described as follows: Inhibition of anchorage-independent colony formation in human MCF7 cells at 5 uM measured upto 21 days by soft agar colony formation assay. The class given is functional, cell-based.
Data set [4] deals with MCF7. The data set is described as follows: Induction of apoptosis in human MCF7 cells assessed as increase in BAX/Bcl2 expression ratio upto 10 uM measured after 48 hrs by western blot analysis. The format is functional, cell-based. For orientation: A western blot detects proteins with antibodies after separation by electrophoresis.
The test system of data set [5] is MDA-MB-231. The data set is described as follows: Antitumor activity against human MDA-MB-231 cells xenografted in athymic nude mouse assessed as time delay in tumor growth at 10 mg/kg, ip dosed 5 times per week preincubated for 15 days measured after 30 days relative to control. The format is functional, organism-based.
Data set [6] concerns MDA-MB-468. In words: Induction of apoptosis in human MDA-MB-468 cells assessed as late apoptotic cells at 8 uM measured after 48 hrs by AnnexinV/7-AAD staining based flow cytometric analysis (reference value: 2.83%). The format is functional. (A flow cytometer gives signals particle by particle.)
For data set [7], the system named is MDA-MB-468. In words: Induction of apoptosis in human MDA-MB-468 cells assessed as necrotic cells at 8 uM measured after 24 hrs by AnnexinV/7-AAD staining based flow cytometric analysis (reference value: 0.62%). The class given is functional.
Data set [8] in a line: Toxicity in athymic nude mouse xenografted with human MDA-MB-231 cells assessed as effect on survival rate at 10 mg/kg, ip dosed 5 times per week preincubated for 15 days measured after 30 days. To be noted: in vivo, 720 h. The class given is organism-based.
Data set [9] deals with MDA-MB-231. In words: Cell cycle arrest in human MDA-MB-231 cells assessed as accumulation at G2/M phase at 5 uM measured after 48 hrs by propidium iodide staining-based flow cytometric analysis relative to control. The class given is functional.
Data set [10] relates to MCF7. In words: Induction of morphological changes in human MCF7 cells assessed as mesenchymal-epithelial transition at 10 uM by inverted microscopic analysis. The format is functional, cell-based.
Data set [11] can be described thus: Selectivity index, ratio of LD50 for E6/E7 immortalized human HNME cells to IC50 for human MDA-MB-468 cells.

For the molecule `COc1cccc(C(=O)/C=C/c2ccc(N(CCCl)CCCl)cc2)c1`, the “Ratio LD50/IC50” value in data set [1] amounted to 3.31; in data set [11] it was 2.92. The Activity entry is given as “Non-Toxic” in [2]; 11.1% in the data set on MDA-MB-468 [6]; 0.61% in the data set on MDA-MB-468 [7]; “Non-Toxic” in data set [8]; 47.27% in the data set with MDA-MB-231 [9]. In the data set with MCF7 [3], the “colony formation inhibition (activity call)” value is “Active”. For the same molecule, the result with MCF7 [4], with MDA-MB-231 [5] and with MCF7 [10] was Active.
